Laboratory results from patent US20090053138A1, “Stabilized Aptamers to Platelet Derived Growth Factor and their Use as Oncology Therapeutics” (priority 2002, published 2009).
Where two headings read alike, the source gives them in different places. {PEG40k} = 40 kDa polyethylene glycol; [invdT] = inverted (3'-3') thymidine; [HEG] = hexaethylene glycol spacer

Legend:
rat PDGF-BB = target: T1, rat PDGF-BB (Rattus norvegicus, UniProt Q05028); assay: Cell migration assay, 3T3 cells; format: cell-based; conditions: 100 nM aptamer, 5 nM PDGF BB, 24 well format
T1 construct: purchased PeproTech, Rocky Hill, N.J
T1 sequence (Q05028 66-174 limits assumed): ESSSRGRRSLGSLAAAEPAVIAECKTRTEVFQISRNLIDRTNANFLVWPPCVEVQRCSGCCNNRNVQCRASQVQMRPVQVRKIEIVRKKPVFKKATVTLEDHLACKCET
Description: PDGF is a strong mitogen as well as a chemoattractant. […] In the cell migration assay 80,000 cells 3T3 rat fibroblasts (ATCC, Manassas, Va.) or RPE (retinal pigmented epithelial) cells (ATCC, Manassas, Va.) were plated per well into a 24 well plate with 8 micron filters (BD Biosciences, Discovery Labware, Bedford, Mass.). 0.5 ml DMEM/0.2% FCS was added to the top chamber and 0.8 ml DMEM/0.2% FCS was added to the bottom chamber. The system was equilibrated by incubating for 4 hours at 37 degrees celsius. Human PDGF-BB (PeproTech, Rocky Hill, N.J.) (for RPE cells) or rat PDGF-BB (PeproTech) (for 3T3 cells) was added to the bottom chamber (0 ng/ml-100 ng/ml final concentration). The system was incubated 4 hours to 12 hours. Cells were scraped off on the top of filter with a Q-tip. The cells that migrated to the bottom of the filter were fixed with a mixture of cold 50% Methanol/50% Acetone for 3 minutes.
Following incubation filters were washed with 1×PBS and stained with Giemsa Stain (Matheson Coleman and Bell) for 1-2 hours and migration was visualized by taking pictures on a Zeiss Axiovert 200M microscope.

U87 glioblastoma cells = assay: Clonogenic growth assay; format: cell-based
Description: U87 glioblastoma cells (ATCC) were grown in the presence or absence of mitogen as well as aptamer as shown in the panels. U87 cells were plated in DMEM/10% FBS to 50% confluency in 100 mm dishes. […] The addition of a final concentration of 50 ng/ml PDGF BB alone caused the appearance of highly connected three dimensional cell clusters. […] Thus, the aptamer blocks cell to cell adhesion of U87 cells which are known to have PDGF driven autocrine loops.

PDGF = assay: PDGF-driven Elk Luciferase reporter gene assay; format: cell-based; conditions: PDGF 50 ng/ml, 3T3 cells
Description: 10,000 3T3 cells/well were plated in DMEM/10% FBS in a 96 well plate. They were transfected using FuGene (Roche, Indianapolis, Ind.) at 3:1 ratio with 5 ng of ELK-1 (Stratagene, La Jolla, Calif.) and 20 ng of pFR-Luciferase plasmids (Stratagene, La Jolla, Calif.). When PDGF is added at a final concentration of 50 ng/ml to 3T3 cells, an increase in the Luciferase signal can be observed which corresponds to the effect of the mitogen on the reporter gene. Steady Glo Luciferase assay (Promega, Madison, Wis.) was used to detect luciferase. […] (FIG. 17.)

[1] = mouse, in vivo, 10 mg/kg
Description: The pharmacokinetic (PK) data shown in FIG. 12A was subjected to non-compartmental analysis (NCA) using the industry-standard software package WinNonLin™ v.4.0 (Pharsight Corp., Mountain View, Calif.). […] The pharmacokinetic (PK) data shown in FIG. 12B was subjected to noncompartmental analysis (NCA) using the industry-standard software package WinNonLin™ v.4.0 (Pharsight Corp., Mountain View, Calif.).
The pharmacokinetic (PK) data shown in FIG. 12B was subjected to noncompartmental analysis (NCA) using the industry-standard software package WinNonLin™ v.4.0 (Pharsight Corp., Mountain View, Calif.).

PDGF BB [2] = target: T2, PDGF BB (Homo sapiens, UniProt P01127); conditions: in vivo, iv, 10 mg/kg
T2 sequence (P01127 82-190 limits assumed): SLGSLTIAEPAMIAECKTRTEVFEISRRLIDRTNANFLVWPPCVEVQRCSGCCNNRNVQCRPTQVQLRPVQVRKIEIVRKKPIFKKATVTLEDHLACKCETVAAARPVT
Description: As a secondary test of both the plasma pharmacokinetics and the in vivo bioactivity of ARC594 the competition binding assay was used to assay the same plasma samples used to generate the pharmacokinetic data. Serial 1:10 dilutions of plasma sample were prepared in phosphate-buffered saline (1×PBS) and mixed with a fixed concentration of ^32P-ARC594, then added to human PDGF-BB. The final concentration of PDGF in each assay was 0.1 nM, and the final concentration of ^32P-ARC594<0.1 nM. In this experiment, the plasma samples were analyzed by comparison with a standard curve generated with samples of known ARC594 concentrations in 1×PBS.

PDGF BB [3] = target: T2, PDGF BB; assay: Competition binding assay, PDGF-BB; set-up: purchased PeproTech, Rocky Hill, N.J; conditions: scrambled variant
Description: Binding reactions were carried out in phosphate-buffered saline (Cellgro, Herndon, Va.) containing 0.2 mg/mL bovine serum albumin (NEB) and 0.02 mg/mL tRNA (Sigma, St. Louis, Mo.). The reactions were equilibrated for a period of 15-30 minutes at room temperature, then filtered through a sandwich of nitrocellulose (Protran membrane, Perkin-Elmer, Boston, Mass.) and nylon (Hybond membrane, Amersham, Piscataway, N.J.) membranes to separate target bound aptamer from free aptamer.
Next, a study was done to determine whether ARC126 cross reacted with PDGF-BB of species other than human. Competition binding assays were set up by dot blot analysis, as previously described, using human, rat, and mouse PDGF-BB (PeproTech, Rocky Hill, N.J.).
The competitive binding assay previously described was used to determine the in vitro binding affinity and selectivity of ARC594 for different PDGF isoforms. Different concentrations of unlabeled, competitor aptamer were titrated in separate reactions against a fixed (<0.1 nM) amount of ^32P-radiolabeled ARC594 in buffer containing a fixed amount (0.1 nM) of the aptamer's cognate target (PDGF-BB; PeproTech). UnPEGylated version of ARC594 was radiolabeled at the 5′ terminus by incubation with γ-^32P-ATP (ICN) and polynucleotide kinase (NEB). Binding reactions were carried out in phosphate-buffered saline (Cellgro) containing 0.2 mg/mL bovine serum albumin (NEB) and 0.02 mg/mL tRNA (Sigma). The reactions were equilibrated for a period of 15-30 minutes at room temperature, then filtered through a sandwich of nitrocellulose (Protran membrane, Perkin-Elmer) and nylon (Hybond membrane, Amersham) membranes to separate target bound aptamer from free aptamer. […] The data was expressed as the ratio of the counts per minute (CPM) of radioactivity due to ^32P-ARC594 bound to PDGF BB on the nitrocellulose membrane (CPMnitrocellulose or CPMnc) over the total CPM (CPMtotal=CPMnitrocellulose+CPMnylon).

Substance | migration of 3T3 cells (rat PDGF-BB) | proliferation rate of U87 cells (MTT assay) (U87 glioblastoma cells) | occurrence of three dimensional cell clusters (U87 glioblastoma cells; 50 ng/ml PDGF-BB plus ARC127) | IC50 (PDGF) [nM] | concentration reducing the Luciferase signal to no mitogen levels (PDGF) [nM] | Cmax ([1]; ip) [µM] | Vz ([1]; ip) [L/kg] | bioavailability, F ([1]; ip) | t1/2 ([1]; ip) [h] | Cmax ([1]; iv) [µM] | Vz ([1]; iv) [L/kg] | bioavailability, F ([1]; iv) | Cmax ([1]; sc) [µM] | Vz ([1]; sc) [L/kg] | bioavailability, F ([1]; sc) | t1/2 ([1]; sc) [h] | active aptamer in plasma (PDGF BB [2]) | binding to PDGF (PDGF BB [3])
5′-[40 K PEG]-(SEQ ID NO:1)-HEG-(SEQ ID NO:2)-HEG-(SEQ ID NO:3)-3′-dT-3′ (chain 1 CAGGCUACG; chain 2 CGTAGAGCAUCA; chain 3 TGATCCUG; piece 1: 2'-fluoro at 6, 8, 2'-O-methyl at 9, 5' {PEG40k}, 3' [HEG], other sugars and backbone not given here; piece 2: 2'-O-methyl at 5, 7, 12, 2'-fluoro at 10, 11, 3' [HEG], other sugars and backbone not given here; piece 3: 2'-fluoro at 5, 6, 7, 2'-O-methyl at 8, 3' [invdT], other sugars and backbone not given here) [ARC127] | inhibits the effects of 5 nM PDGF-BB | no effect on proliferation rate | reduced the occurrence of clusters to background level | ≤ 2 | 3 | 12.8 | 0.078 | 0.625 | 7.856 | 29.7 | 0.053 | 1.000 | 3.18 | 0.238 | 0.240 | 9.176 | present and active | 
5′-(SEQ ID NO.4)-HEG-(SEQ ID NO:5)-HEG-(SEQ ID NO:6)-3 (chain 1 CAGCGUACG; chain 2 CGTACCGATUCA; chain 3 TGAAGCUG; HEG spacers joining pieces; synthetic aptamer; modified_base (4)..(4) cytidine is 2′-fluoro; modified_base (5)..(5) gm; modified_base (6)..(6) uridine is 2′-fluoro; modified_base (8)..(8) cytidine is 2′-fluoro; modified_base (9)..(9) gm; modified_base (7)..(7) gm; modified_base (10)..(10) uridine is 2′-fluoro; modified_base (11)..(11) cytidine is 2′-fluoro; modified_base (12)..(12) adenosine is 2′-O-Methyl; modified_base (6)..(6) cytidine is 2′-fluoro; modified_base (7)..(7) uridine is 2′-fluoro; modified_base (8)..(8) gm) [ARC128, reference compound] | no activity |  |  |  |  |  |  |  |  |  |  |  |  |  |  |  |  | no longer binds PDGF
